The values that follow come from US10266497B2 (ABIDE THERAPEUTICS, INC., priority 2017, dated 2019).

Assay [1] deals with T1, MAGL (Homo sapiens, UniProt Q99685).
T1 sequence (Q99685 1-303): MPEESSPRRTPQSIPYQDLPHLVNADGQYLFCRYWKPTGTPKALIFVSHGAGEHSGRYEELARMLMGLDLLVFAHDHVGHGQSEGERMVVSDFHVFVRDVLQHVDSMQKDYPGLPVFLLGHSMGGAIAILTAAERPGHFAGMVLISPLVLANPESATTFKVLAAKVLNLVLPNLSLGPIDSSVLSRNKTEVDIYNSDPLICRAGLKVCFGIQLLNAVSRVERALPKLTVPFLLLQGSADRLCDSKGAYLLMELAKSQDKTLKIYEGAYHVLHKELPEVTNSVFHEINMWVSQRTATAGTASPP
Kind of assay: In vitro competitive activity-based protein profiling, MAGL, human. Conditions: for inhibition at 1 µM: read-out: MAGL % inh. 1 μM (human).

The target in assay [2] is T2, MAGL (Mus musculus, UniProt O35678).
T2 sequence (O35678 1-303): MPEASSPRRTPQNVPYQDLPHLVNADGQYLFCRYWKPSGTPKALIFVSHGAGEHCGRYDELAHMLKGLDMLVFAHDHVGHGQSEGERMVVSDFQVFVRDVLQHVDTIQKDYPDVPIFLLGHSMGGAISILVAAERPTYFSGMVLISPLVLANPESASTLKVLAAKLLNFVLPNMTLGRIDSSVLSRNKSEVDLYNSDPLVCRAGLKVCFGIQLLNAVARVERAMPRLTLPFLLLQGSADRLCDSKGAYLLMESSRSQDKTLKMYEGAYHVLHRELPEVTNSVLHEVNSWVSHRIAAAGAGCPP
The experiment in a line: In vitro competitive activity-based protein profiling, MAGL, mouse. The settings on record: read-out: MAGL % inh. 1 μM (mouse).

The target of assay [3] is T3, FAAH (Homo sapiens, UniProt O00519).
T3 sequence (O00519 1-579): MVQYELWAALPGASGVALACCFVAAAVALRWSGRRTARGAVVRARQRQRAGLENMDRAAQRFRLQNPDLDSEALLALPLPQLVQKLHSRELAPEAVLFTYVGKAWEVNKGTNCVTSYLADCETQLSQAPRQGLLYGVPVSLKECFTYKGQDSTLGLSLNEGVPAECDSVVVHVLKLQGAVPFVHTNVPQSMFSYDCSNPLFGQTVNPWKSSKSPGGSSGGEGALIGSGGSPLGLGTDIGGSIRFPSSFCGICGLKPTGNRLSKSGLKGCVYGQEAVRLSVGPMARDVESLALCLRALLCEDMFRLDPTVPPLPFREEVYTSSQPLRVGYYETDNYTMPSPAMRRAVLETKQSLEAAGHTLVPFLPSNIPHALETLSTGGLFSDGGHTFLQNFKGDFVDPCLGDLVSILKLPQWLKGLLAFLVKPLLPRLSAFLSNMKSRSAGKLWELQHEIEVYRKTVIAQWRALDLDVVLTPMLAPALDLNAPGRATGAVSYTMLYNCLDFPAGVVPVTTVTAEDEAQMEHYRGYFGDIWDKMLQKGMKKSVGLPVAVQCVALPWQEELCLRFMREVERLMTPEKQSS
Kind of assay: In vitro competitive activity-based protein profiling, FAAH, human. Conditions: for inhibition at 1 µM: read-out: FAAH % inh. 1 μM (human).
Experimental: (§1) Biological Evaluation In Vitro Competitive Activity-Based Protein Profiling.
(§2) Proteomes (mouse brain membrane fraction for mouse assays; human prefrontal cortex membrane fractions for human assays) (50 mL, 1.0 mg/mL total protein concentration) were preincubated with varying concentrations of inhibitors at 37° C. After 30 min, FP-Rh (1.0 mL, 50 mM in DMSO) was added and the mixture was incubated for another 30 min at 37° C. Reactions were quenched with SDS loading buffer (15 μL—4λ) and run on SDS-PAGE.

Assay [4] concerns the target T4, FAAH (Mus musculus, UniProt O08914).
T4 sequence (O08914 1-579): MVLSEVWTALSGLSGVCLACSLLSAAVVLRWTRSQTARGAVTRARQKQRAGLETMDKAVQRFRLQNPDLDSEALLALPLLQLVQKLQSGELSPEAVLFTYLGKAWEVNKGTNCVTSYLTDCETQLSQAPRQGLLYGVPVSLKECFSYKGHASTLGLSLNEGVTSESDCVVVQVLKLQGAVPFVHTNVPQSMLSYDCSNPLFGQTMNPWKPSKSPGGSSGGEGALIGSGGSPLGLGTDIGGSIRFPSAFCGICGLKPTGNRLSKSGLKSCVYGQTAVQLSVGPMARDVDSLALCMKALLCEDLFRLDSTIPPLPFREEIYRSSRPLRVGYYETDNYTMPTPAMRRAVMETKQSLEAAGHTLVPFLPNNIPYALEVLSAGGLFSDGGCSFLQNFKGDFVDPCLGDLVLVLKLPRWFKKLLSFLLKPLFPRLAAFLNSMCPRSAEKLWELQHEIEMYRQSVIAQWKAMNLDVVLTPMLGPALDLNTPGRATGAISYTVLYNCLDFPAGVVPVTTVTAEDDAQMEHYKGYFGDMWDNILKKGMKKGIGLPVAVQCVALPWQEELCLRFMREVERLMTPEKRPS
Kind of assay: In vitro competitive activity-based protein profiling, FAAH, mouse. The settings on record: read-out: FAAH % inh. 1 μM (mouse).
Experimental: as §1, §2

The target in assay [5] is T2, MAGL. Kind of assay: Mouse brain proteomes from inhibitor treated mice (oral gavage, sacrificed 4 h after administration). Conditions: 5 mg/kg oral gavage, brain proteome 4 h after administration, read-out: MAGL % inh. 5 mg/kg (mouse). Format: in vivo. More on the design: mouse brain membrane fraction for mouse assays; from tissue; host or cells: mouse brain (membrane fraction in vitro; brain proteomes of treated C57Bl/6J mice in vivo).

Assay [6] concerns the target T4, FAAH. Kind of assay: Mouse brain proteomes from inhibitor treated mice (oral gavage, sacrificed 4 h after administration), FAAH. In kind it is in vivo. More on the design: mouse brain membrane fraction for mouse assays; from tissue; host or cells: mouse brain (membrane fraction in vitro; brain proteomes of treated C57Bl/6J mice in vivo). Conditions: 5 mg/kg oral gavage, brain proteome 4 h after administration, read-out: FAAH % inh. 5 mg/kg (mouse).

Each structure is given as a SMILES string.

Broadly, the IC50 is the midpoint of a concentration-inhibition curve. The low end stands for greater potency in that assay, the high end for weaker potency in that assay.

With `CC(=O)NC1CCN(c2cc(C(F)(F)F)ccc2CN2CCN(C(=O)n3ccc(C(=O)O)n3)CC2)CC1` [Example 119, 1-(4-(2-(4-acetamidopiperidin-1-yl)-4-(trifluoromethyl)benzyl)piperazine-1-carbonyl)-1H-pyrazole-3-carboxylic acid], the inhibition at 1 µM is over 75% in assay [1], over 75% in assay [2], 0 to 25% in assay [3] and 0 to 25% in assay [4]. Also, the inhibition at 5 mg/kg in assay [5] and in assay [6] was 0 to 25% in each case.

With `O=C(O)c1ccn(C(=O)N2CCC3(CCCN3Cc3cc(Cl)cc(C(F)(F)F)c3)CC2)n1` [Example 86, 1-(1-(3-chloro-5-(trifluoromethyl)benzyl)-1,8-diazaspiro[4.5]decane-8-carbonyl)-1H-pyrazole-3-carboxylic acid], the inhibition at 1 µM in assay [1] was over 75%; in assay [2] it was over 75%; in assay [3] it was 0 to 25%; in assay [4], 0 to 25%. Further, the inhibition at 5 mg/kg in assay [5] and in assay [6] was 0 to 25% each time.

For `O=C(O)c1ccn(C(=O)N2CCN(Cc3ccc(C(F)(F)F)c(N4C5CCC4COC5)c3)CC2)n1` [Example 40, 1-(4-(3-(3-oxa-8-azabicyclo[3.2.1]octan-8-yl)-4-(trifluoromethyl)benzyl)piperazine-1-carbonyl)-1H-pyrazole-3-carboxylic acid], the inhibition at 1 µM in assay [1] was over 75%; in assay [2], over 75%; in assay [3], 0 to 25%; in assay [4], 0 to 25%. Further, the inhibition at 5 mg/kg in assay [5] and in assay [6] was 0 to 25% each time.

As for `NC(=O)c1ccn(C(=O)N2CCN(Cc3cccc(C(F)(F)F)c3N3CCOCC3)CC2)n1` [Example 199, 1-(4-(2-morpholino-3-(trifluoromethyl)benzyl)piperazine-1-carbonyl)-1H-pyrazole-3-carboxamide], the inhibition at 1 µM in assay [1], in assay [2], in assay [3] and in assay [4] was over 75% throughout. Further, in assay [3], the half-inhibitory concentration (IC50) fell in the range of 100 to 1000 nM. For the same compound, the figures for the inhibition at 5 mg/kg in assay [5] and in assay [6] were over 75% and 0 to 25%, respectively.

Regarding `O=C(O)c1ccn(C(=O)N2CCN(Cc3ccc(C(F)(F)F)cc3N3C4CCC3COC4)CC2)n1` [Example 118, 1-(4-(2-(3-oxa-8-azabicyclo[3.2.1]octan-8-yl)-4-(trifluoromethyl)benzyl)piperazine-1-carbonyl)-1H-pyrazole-3-carboxylic acid], the inhibition at 1 µM is over 75% in assay [1], over 75% in assay [2], 0 to 25% in assay [3] and 0 to 25% in assay [4]. Besides, the inhibition at 5 mg/kg in assay [5] and in assay [6] was 0 to 25% throughout.

As for `O=C(O)c1nn(C(=O)N2CCN(Cc3cccc(Oc4ccc(Cl)cc4)c3)CC2)cc1Cl` [Example 132, 4-chloro-1-(4-(3-(4-chlorophenoxy)benzyl)piperazine-1-carbonyl)-1H-pyrazole-3-carboxylic acid], the inhibition at 1 µM in assay [1], in assay [2], in assay [3] and in assay [4] was over 75% each time. Besides, the inhibition at 5 mg/kg in assay [5] and in assay [6] was 0 to 25% throughout.

For the compound `O=C(O)c1ccn(C(=O)N2CC3CN(Cc4cccc(Oc5ccc(Cl)cc5)c4)CC3C2)n1` (stereo not drawn) [Example 116, 1-(5-(3-(4-chlorophenoxy)benzyl)octahydro-pyrrolo[3,4-c]pyrrole-2-carbonyl)-1H-pyrazole-3-carboxylic acid], the half-maximal inhibitory concentration (IC50) in assay [1] and in assay [3] was 100 to 1000 nM throughout. Also, the inhibition at 1 µM in assay [1] is over 75%; in assay [2], over 75%; in assay [3], over 75%; in assay [4] it was 0 to 25%. The inhibition at 5 mg/kg in assay [5] and in assay [6] was 0 to 25% in each case.
